Assay results: ChEMBL document CHEMBL1143467, “Synthesis of potent and selective serotonin 5-HT1B receptor ligands” (Bioorg Med Chem Lett, 2005)

Columns and labels:
[1] = target: 5-hydroxytryptamine receptor 2A (Homo sapiens, UniProt P28223); test: In vitro binding affinity towards cloned human 5-HT2A receptor using [3H]5-carboximidotryptamine as radioligand
[2] = target: Delta-type opioid receptor (Homo sapiens, UniProt P41143); test: Affinity towards cloned Opioid receptor delta 1
[3] = target: 5-hydroxytryptamine receptor 1B (Homo sapiens, UniProt P28222); test: In vitro binding affinity towards cloned human 5-HT1B receptor using [3H]5-carboximidotryptamine as radioligand
Chain of 5-hydroxytryptamine receptor 1B (P28222 whole entry): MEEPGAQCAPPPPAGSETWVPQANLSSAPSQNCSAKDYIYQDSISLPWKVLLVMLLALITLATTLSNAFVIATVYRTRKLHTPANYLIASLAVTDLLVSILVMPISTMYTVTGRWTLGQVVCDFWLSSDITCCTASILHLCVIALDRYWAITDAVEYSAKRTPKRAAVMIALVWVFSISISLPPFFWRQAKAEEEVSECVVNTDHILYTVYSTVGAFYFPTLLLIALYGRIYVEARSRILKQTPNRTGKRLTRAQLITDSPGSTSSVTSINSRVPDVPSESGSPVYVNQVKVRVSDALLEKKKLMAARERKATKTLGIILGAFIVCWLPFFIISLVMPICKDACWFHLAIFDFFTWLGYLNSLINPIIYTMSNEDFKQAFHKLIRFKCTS

D(1B) dopamine receptor = D(1B) dopamine receptor (Homo sapiens, UniProt P21918); test: Affinity towards cloned Dopamine receptor D5
Chain of D(1B) dopamine receptor (P21918 whole entry): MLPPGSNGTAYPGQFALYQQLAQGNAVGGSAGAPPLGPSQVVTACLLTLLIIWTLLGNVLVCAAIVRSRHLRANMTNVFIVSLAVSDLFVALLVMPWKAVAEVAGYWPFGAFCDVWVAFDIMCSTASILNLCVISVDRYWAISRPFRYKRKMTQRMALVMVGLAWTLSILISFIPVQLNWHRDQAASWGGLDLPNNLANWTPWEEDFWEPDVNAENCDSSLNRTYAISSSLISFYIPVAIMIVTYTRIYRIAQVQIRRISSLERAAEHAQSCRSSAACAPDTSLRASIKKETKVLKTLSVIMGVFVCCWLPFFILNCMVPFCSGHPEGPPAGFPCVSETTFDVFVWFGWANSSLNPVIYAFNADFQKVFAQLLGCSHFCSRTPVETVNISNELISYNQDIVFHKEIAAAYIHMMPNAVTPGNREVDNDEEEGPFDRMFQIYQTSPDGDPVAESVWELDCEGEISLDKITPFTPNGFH

Histamine H1 receptor = Histamine H1 receptor (Homo sapiens, UniProt P35367); test: Affinity towards cloned Histamine H1 receptor
Chain of Histamine H1 receptor (P35367 whole entry): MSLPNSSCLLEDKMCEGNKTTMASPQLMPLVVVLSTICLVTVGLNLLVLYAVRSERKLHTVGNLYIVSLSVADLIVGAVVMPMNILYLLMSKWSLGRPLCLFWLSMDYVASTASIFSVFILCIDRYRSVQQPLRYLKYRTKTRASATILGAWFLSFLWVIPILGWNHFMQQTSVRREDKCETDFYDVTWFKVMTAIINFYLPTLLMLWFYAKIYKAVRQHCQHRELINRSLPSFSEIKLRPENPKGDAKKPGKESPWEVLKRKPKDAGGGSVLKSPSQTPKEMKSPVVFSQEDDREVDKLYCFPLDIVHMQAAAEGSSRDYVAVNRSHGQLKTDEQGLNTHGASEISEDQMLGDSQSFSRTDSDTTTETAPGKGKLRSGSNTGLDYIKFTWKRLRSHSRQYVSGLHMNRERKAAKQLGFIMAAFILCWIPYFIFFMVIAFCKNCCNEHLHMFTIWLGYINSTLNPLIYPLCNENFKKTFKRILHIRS

[4] = target: 5-hydroxytryptamine receptor 7 (Homo sapiens, UniProt P34969); test: In vitro binding affinity towards cloned human 5-HT7 receptor using [3H]5-carboximidotryptamine as radioligand
Chain of 5-hydroxytryptamine receptor 7 (P34969 whole entry): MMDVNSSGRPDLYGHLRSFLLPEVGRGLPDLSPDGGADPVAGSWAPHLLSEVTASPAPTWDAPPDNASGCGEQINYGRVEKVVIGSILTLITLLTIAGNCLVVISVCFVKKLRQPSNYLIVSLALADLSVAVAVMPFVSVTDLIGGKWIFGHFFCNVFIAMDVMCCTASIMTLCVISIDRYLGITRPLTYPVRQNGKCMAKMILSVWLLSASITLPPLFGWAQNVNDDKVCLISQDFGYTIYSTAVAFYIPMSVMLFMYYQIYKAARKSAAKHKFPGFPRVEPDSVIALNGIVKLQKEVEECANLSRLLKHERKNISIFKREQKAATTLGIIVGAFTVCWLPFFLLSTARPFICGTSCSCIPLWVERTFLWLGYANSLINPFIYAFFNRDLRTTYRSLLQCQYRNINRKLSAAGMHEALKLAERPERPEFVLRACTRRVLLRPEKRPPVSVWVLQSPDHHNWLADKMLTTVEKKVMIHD

D(4) dopamine receptor = target: T1, D(4) dopamine receptor (Homo sapiens, UniProt P21917); test: Affinity towards cloned Dopamine receptor D4
T1 sequence (P21917 whole entry): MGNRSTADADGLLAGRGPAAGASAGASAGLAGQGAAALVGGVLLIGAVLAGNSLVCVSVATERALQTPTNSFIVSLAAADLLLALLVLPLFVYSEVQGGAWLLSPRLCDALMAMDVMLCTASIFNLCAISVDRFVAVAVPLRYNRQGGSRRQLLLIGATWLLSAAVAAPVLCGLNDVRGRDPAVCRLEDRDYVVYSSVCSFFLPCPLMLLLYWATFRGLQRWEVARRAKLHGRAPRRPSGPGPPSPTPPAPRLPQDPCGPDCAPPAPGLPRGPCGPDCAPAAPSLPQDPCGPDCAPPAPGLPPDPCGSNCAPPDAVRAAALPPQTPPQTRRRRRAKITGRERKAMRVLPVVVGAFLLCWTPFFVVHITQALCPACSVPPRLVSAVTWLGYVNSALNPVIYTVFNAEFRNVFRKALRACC

[5] = target: T2, 5-hydroxytryptamine receptor 1A (Homo sapiens, UniProt P08908); test: In vitro binding affinity towards cloned human 5-HT1A receptor using [3H]5-carboximidotryptamine as radioligand
T2 sequence (P08908 whole entry): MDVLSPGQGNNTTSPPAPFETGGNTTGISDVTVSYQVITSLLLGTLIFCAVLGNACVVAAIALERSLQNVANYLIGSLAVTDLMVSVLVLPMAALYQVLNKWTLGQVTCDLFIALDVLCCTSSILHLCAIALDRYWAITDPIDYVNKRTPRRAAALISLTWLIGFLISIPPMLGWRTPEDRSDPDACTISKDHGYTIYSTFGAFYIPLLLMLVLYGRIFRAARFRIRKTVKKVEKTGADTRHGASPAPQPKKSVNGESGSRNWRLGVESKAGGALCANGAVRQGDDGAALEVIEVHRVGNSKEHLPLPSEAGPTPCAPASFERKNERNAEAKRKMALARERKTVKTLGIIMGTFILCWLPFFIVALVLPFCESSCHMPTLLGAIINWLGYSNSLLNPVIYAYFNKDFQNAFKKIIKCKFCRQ

[6] = target: 5-hydroxytryptamine receptor 6 (Homo sapiens, UniProt P50406); test: In vitro binding affinity towards cloned human 5-HT6 receptor using [3H]5-carboximidotryptamine as radioligand
Chain of 5-hydroxytryptamine receptor 6 (P50406 whole entry): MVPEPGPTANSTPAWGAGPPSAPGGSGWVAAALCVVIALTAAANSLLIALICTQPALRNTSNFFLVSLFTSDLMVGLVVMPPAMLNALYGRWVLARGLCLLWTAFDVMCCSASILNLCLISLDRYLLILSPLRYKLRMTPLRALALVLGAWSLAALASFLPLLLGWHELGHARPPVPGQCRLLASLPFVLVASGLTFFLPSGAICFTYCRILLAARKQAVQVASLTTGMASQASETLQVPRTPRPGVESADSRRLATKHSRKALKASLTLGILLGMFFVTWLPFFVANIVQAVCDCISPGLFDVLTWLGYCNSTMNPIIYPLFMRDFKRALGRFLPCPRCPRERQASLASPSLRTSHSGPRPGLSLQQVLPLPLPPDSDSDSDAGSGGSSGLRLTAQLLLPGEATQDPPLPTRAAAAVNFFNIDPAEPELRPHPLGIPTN

Mu-type opioid receptor = Mu-type opioid receptor (Homo sapiens, UniProt P35372); test: Affinity towards cloned Opioid receptor mu 1
Chain of Mu-type opioid receptor (P35372 whole entry): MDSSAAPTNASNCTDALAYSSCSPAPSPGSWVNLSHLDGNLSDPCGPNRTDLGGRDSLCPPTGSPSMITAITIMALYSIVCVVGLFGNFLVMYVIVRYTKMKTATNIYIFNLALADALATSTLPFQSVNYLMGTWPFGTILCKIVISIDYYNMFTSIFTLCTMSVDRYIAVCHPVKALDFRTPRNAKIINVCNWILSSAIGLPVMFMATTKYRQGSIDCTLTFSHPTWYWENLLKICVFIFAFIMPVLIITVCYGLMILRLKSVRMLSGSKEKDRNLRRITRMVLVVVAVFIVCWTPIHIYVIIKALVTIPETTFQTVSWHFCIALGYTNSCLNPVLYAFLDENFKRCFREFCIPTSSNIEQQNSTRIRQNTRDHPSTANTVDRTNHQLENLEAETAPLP

D(3) dopamine receptor = D(3) dopamine receptor (Homo sapiens, UniProt P35462); test: Affinity towards cloned Dopamine receptor D3
Chain of D(3) dopamine receptor (P35462 whole entry): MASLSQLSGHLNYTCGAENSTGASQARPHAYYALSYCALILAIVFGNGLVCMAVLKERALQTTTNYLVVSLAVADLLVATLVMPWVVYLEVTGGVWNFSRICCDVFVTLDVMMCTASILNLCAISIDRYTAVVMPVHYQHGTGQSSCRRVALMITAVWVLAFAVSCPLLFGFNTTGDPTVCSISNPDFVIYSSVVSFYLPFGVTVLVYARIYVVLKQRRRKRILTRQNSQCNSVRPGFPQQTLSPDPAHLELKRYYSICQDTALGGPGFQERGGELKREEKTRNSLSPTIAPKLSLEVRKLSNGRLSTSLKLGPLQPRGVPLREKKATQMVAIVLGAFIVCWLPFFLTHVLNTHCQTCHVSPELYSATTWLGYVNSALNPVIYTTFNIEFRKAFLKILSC

[7] = target: T3, Muscarinic acetylcholine receptor M1 (Homo sapiens, UniProt P11229); test: Affinity towards cloned Muscarinic acetylcholine receptor M1
T3 sequence (P11229 whole entry): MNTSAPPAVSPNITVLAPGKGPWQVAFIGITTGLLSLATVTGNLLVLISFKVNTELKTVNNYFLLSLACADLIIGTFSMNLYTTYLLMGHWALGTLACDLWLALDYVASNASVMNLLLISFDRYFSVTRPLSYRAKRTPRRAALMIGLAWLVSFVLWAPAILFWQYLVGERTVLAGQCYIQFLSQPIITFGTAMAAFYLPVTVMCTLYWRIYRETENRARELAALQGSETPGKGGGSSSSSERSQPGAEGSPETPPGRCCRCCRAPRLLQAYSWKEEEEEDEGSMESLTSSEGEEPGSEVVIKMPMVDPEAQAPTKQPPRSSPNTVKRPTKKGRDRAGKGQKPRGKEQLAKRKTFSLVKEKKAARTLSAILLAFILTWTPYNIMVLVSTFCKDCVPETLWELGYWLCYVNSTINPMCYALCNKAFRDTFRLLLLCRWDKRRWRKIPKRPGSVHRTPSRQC

[8] = target: T4, 5-hydroxytryptamine receptor 2C (Homo sapiens, UniProt P28335); test: In vitro binding affinity towards cloned human 5-HT2C receptor using [3H]5-carboximidotryptamine as radioligand
T4 sequence (P28335 whole entry): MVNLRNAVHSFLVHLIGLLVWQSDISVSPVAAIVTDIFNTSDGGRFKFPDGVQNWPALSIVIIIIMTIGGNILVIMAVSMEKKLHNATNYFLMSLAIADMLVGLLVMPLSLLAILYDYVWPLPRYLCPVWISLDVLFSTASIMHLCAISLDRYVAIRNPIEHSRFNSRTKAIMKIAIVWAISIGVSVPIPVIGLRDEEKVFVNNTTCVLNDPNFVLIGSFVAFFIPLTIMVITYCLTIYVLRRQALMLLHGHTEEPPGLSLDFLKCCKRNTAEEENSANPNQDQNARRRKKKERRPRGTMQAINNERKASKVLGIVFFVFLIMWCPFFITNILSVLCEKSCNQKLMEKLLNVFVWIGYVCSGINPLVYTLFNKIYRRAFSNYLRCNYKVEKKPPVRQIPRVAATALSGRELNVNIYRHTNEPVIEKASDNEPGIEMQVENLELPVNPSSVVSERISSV

[9] = target: T5, Muscarinic acetylcholine receptor M4 (Homo sapiens, UniProt P08173); test: Affinity towards cloned Muscarinic acetylcholine receptor M4
T5 sequence (P08173 whole entry): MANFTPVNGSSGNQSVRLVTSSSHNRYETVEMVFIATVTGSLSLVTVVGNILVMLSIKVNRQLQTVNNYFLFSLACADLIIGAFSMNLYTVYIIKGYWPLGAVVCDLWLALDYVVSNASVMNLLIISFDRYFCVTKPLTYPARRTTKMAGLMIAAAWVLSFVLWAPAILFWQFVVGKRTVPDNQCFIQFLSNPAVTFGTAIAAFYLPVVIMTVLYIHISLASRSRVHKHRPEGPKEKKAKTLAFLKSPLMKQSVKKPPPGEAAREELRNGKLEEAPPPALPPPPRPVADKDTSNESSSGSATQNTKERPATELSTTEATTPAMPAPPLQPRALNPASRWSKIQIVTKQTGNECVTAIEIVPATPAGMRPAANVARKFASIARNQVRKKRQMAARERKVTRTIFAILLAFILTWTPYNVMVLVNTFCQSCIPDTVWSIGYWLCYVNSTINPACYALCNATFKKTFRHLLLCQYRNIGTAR

Chain of Delta-type opioid receptor (P41143 whole entry): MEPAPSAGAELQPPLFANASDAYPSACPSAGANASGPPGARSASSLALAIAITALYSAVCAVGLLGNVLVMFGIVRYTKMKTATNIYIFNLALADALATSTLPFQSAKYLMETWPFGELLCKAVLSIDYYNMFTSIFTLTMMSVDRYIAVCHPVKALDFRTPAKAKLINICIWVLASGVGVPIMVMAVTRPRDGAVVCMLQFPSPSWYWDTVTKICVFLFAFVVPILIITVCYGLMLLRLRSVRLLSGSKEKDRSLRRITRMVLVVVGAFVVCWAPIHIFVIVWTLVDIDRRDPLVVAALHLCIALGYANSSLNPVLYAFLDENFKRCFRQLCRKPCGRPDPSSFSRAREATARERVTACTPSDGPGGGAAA
Chain of 5-hydroxytryptamine receptor 2A (P28223 whole entry): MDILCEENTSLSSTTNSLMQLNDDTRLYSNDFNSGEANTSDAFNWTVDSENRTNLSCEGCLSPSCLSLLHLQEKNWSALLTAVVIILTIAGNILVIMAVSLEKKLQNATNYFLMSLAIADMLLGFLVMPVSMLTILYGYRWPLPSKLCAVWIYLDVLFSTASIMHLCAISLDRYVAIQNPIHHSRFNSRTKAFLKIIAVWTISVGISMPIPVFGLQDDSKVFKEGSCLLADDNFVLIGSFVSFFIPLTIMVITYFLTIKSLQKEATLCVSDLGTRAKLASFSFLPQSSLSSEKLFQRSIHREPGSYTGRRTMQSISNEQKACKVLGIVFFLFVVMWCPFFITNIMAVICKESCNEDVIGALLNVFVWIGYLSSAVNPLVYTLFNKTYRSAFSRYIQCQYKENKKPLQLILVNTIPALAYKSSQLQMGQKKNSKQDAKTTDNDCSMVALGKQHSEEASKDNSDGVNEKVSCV

Ki [1] [µM] | Ki [2] [µM] | Ki [3] [µM] | Ki (D(1B) dopamine receptor) [µM] | Ki (Histamine H1 receptor) [µM] | Ki [4] [µM] | Ki (D(4) dopamine receptor) [µM] | Ki [5] [µM] | Ki [6] [µM] | Ki (Mu-type opioid receptor) [µM] | Ki (D(3) dopamine receptor) [µM] | Ki [7] [µM] | Ki [8] [µM] | Ki [9] [µM] | SMILES
> 10 | > 10 | 0.0181 | > 10 | > 10 | > 10 | > 10 | 0.315 | 0.841 | > 10 | > 10 | > 10 | 1.08 | > 10 | COc1ccc(NC(=O)N2CCN(c3ccccc3F)CC2)cc1N1CCN(C)CC1
1.34 | > 10 | 0.0167 | > 10 | > 10 | > 10 | > 10 | 0.882 | > 10 | > 10 | > 10 | > 10 | 1.14 | > 10 | COc1ccc(NC(=O)N2CCN(c3ccc(SC)cc3)CC2)cc1N1CCN(C)CC1
5.99 | > 10 | 0.0113 | > 10 | > 10 | 0.342 | > 10 | 0.335 | 0.469 | > 10 | > 10 | > 10 | 1.24 | > 10 | COc1ccc(NC(=O)N2CCN(c3ccccc3Cl)CC2)cc1N1CCN(C)CC1
> 10 | > 10 | 0.00968 | > 10 | > 10 | – | > 10 | 0.0154 | – | > 10 | > 10 | > 10 | 9.95 | > 10 | COc1ccccc1N1CCC(C(=O)Nc2ccc(OC)c(N3CCN(C)CC3)c2)CC1
1.01 | > 10 | 0.00182 | > 10 | > 10 | > 10 | > 10 | 0.0525 | 5.09 | > 10 | > 10 | > 10 | 0.267 | > 10 | COc1ccc(NC(=O)N2CCN(c3ccc(Cl)cc3)CC2)cc1N1CCN(C)CC1
0.171 | > 10 | 0.0137 | > 10 | > 10 | > 10 | > 10 | 0.405 | 1.43 | > 10 | > 10 | > 10 | 0.0065 | > 10 | COc1ccc(NC(=O)N2CCN(c3ccc(-c4ccccc4)cc3)CC2)cc1N1CCN(C)CC1
0.0427 | > 10 | 0.00431 | > 10 | > 10 | > 10 | > 10 | 0.08 | > 10 | > 10 | > 10 | > 10 | 0.105 | > 10 | COc1ccc(NC(=O)c2ccc(-c3ccc(-c4noc(C)n4)cc3C)cc2)cc1N1CCN(C)CC1 [GR-127935]
0.614 | > 10 | 0.0284 | > 10 | > 10 | > 10 | > 10 | 0.382 | 2.86 | > 10 | > 10 | > 10 | 2.83 | > 10 | COc1ccc(NC(=O)N2CCN(c3ccc(C(F)(F)F)cc3)CC2)cc1N1CCN(C)CC1
4.45 | > 10 | 0.0383 | > 10 | > 10 | > 10 | > 10 | 1.08 | > 10 | > 10 | > 10 | > 10 | > 10 | > 10 | COc1ccc(NC(=O)N2CCN(c3ccc(F)cc3)CC2)cc1N1CCN(C)CC1
